Test results: US12152035B2, “Androgen receptor binding molecule and use thereof” (Industrial Technology Research Institute, priority 2020, dated 2024)

Assays:
Format in all cases: cell-based
CWR22RV1 cells = assay: Cytotoxicity assay (AlamarBlue, 72 hours); settings: 72 hours treatment, concentration not given
Protocol: (§1) Compound stock solutions of 10 mM were prepared with 100% DMSO and shaken for 10-15 seconds. The compound stock solutions were centrifuged at 12000 rpm (13523 rcf.) for 5 minutes and record the turbidity or precipitation state with a photo snapshot. The compound stock solutions were resuspended by shaking for 10-15 seconds, and serially diluted with 100% DMSO solution to make the compound concentration to 1000 μM, then to 100, 10, and 1 μM, and then 10-fold diluted with medium to 100, 10, 1, 0.1 μM (final 10% DMSO/medium) to complete compound test sample preparation. Compound treatment was performed by adding 10 μL of compound test sample to cells in each well of a 96-well plate (final 1% DMSO/medium).
(§2) Cells (CWR22Rv1 cells or VCaP cells) were cultured in RPMI-1640 medium supplemented with 10% fetal bovine serum, 10,000 U/mL penicillin and 10,000 μg/mL streptomycin. Cells were cultured at 37° C. in a humidified 5% CO2 incubator.
(§3) Cells were seeded in a 96-well plate (1×10^4 cells/well). 10 μL of the above compound test sample was added to each well of the 96-well plate on next day. After 72 hours of compound treatment, 10 μL of AlamaBlue reagent was added to each of 96 wells and incubated for 4 hours. The fluorescence value at Ex/Em=560/590 nm was read with a microplate reader, and the cytotoxicity (%) was calculated.
(§4) According to the above method, the compounds prepared above were subjected to cytotoxicity test with CWR22RV1 cells and VCaP cells.

VCaP cells = assay: Cytotoxicity assay (AlamarBlue, 72 hours); settings: 72 hours treatment, concentration not given
Protocol: as §1, §2, §3, §4

[1] = system: full-length androgen receptor; assay: Western blot: degradation of full-length androgen receptor in CWR22RV1 cells; settings: overnight
Protocol: CWR22Rv1 cells were maintained in RPMI medium supplemented with 10% fetal bovine serum and 1% penicillin-streptomycin at 37° C. in a humidified environment with 5% CO2.
CWR22Rv1 (5×10^5 cells) were seeded in each well of a 6-well plate and incubated overnight. Before compound treatment, the medium in the wells was replaced with a new medium. Cells were treated with different concentrations of compound overnight. Subsequently, cells were harvested by adding cold PBS and scraping cells. Cells were lysed according to general procedures and Western blot assays were performed to assess the ability of compounds to degrade full-length androgen receptor or androgen receptor splice variant 7. The cells or cell lysates were kept on ice at all times.
The following reagents were used in this experiment. Phosphate buffered saline (PBS) (Hyclone, SH30028.02), fetal bovine serum (Hyclone, SH30084.23, Lot AC14563276), penicillin-streptomycin solution (Hyclone, SV30010), 0.5% Trypsin-EDTA (Gibco, 15400-054), CST Lysis Buffer (CST-9803), Halt™ Protease and Phosphatase Inhibitor (ThermoFisher, 78442), Coomassie (Bradford) Protein Assay (Coomassie (Bradford) protein assay) (ThermoFisher, 23200), androgen receptor antibody (Cell Siginaling, CST-5153S), GAPDH antibody (Cell Siginaling, CST-5174S), HRP-goat-anti-rabbit (Jackson Immuno Research, 111-035-003), skim milk, SuperSignal West Pico Maximum Sensitivity substrate (ThermoFisher, 34080).
The compound prepared above was analyzed for its ability to degrade full-length androgen receptor and androgen receptor splice variant 7 in CWR22RV1 cells by Western blotting according to the method shown in item B.3-2 above.

[2] = compound concentration 0.1 (unit not given)
[3] = compound concentration 1 (unit not given)
[4] = compound concentration 10 (unit not given)

Structure (SMILES)	Cytotoxicity, CWR22RV1 cells (cell viability %) (CWR22RV1 cells)	Cytotoxicity, VCaP cells (cell viability %) (VCaP cells)	Degradation ability for full-length androgen receptor (residual rate %) [1, 2]	Degradation ability for full-length androgen receptor (residual rate %) [1, 3]	Degradation ability for full-length androgen receptor (residual rate %) [1, 4]
Cc1cc([C@H](C(=O)N2C[C@H](O)C[C@H]2C(=O)N[C@@H](CC(=O)N2CCC(N3CCC(C#Cc4ccc(C5CCN(C6=Nn7c(nnc7C(F)(F)F)CC6)CC5)cc4)CC3)CC2)c2ccc(-c3scnc3C)cc2)C(C)C)on1 [Compound 9, (2S,4R)-4-hydroxy-1-((R)-3-methyl-2-(3-methylisoxazol-5-yl)butanoyl)-N—((S)-1-(4-(4-methylthiazol-5-yl)phenyl)-3-oxo-3-(4-((4-(1-(3-(trifluoromethyl)-7,8-dihydro-[1,2,4]triazolo[4,3-b]pyridazin-6-yl)piperidin-4-yl)phenyl)ethynyl)-[1,4′-bipiperidin]-1′-yl)propyl)pyrrolidine-2-carboxamide]	++ (40-60% : ++)	+++ (<40% : +++)	+ (60-80%: +)	+++ (<40%: +++)	+ (60-80%: +)
Cc1cc([C@H](C(=O)N2C[C@H](O)C[C@H]2C(=O)N[C@@H](CC(=O)N2CCC(C#Cc3ccc(C4CCN(C5=Nn6c(nnc6C(F)(F)F)CC5)CC4)cc3)CC2)c2ccc(-c3scnc3C)cc2)C(C)C)on1 [Compound 14, (2S,4R)-4-hydroxy-1-((R)-3-methyl-2-(3-methylisoxazol-5-yl)butanoyl)-N—((S)-1-(4-(4-methylthiazol-5-yl)phenyl)-3-oxo-3-(4-((4-(1-(3-(trifluoromethyl)-7,8-dihydro-[1,2,4]triazolo[4,3-b]pyridazin-6-yl)piperidin-4-yl)phenyl)ethynyl)piperidin-1-yl)propyl)pyrrolidine-2-carboxamide]	+++ (<40% : +++)	+++ (<40% : +++)	− (>80%; −)	− (>80%; −)	+++ (<40%: +++)
Cc1ncsc1-c1ccc(CNC(=O)[C@@H]2C[C@H](O)CN2C(=O)[C@@H](NC(=O)COCCOc2ccc(C3CCN(C4=Nn5c(nnc5C(F)(F)F)CC4)CC3)cc2)C(C)(C)C)cc1 [Compound 19, (2S,4S)-1-((S)-3,3-dimethyl-2-(2-(2-(4-(1-(3-(trifluoromethyl)-7,8-dihydro-[1,2,4]triazolo[4,3-b]pyridazin-6-yl)piperidin-4-yl)phenoxy)ethoxy)acetamido)butanoyl)-4-hydroxy-N-(4-(4-methylthiazol-5-yl)benzyl)pyrrolidine-2-carboxamide]	− (<80% : −)	− (<80% : −)	− (>80%; −)	− (>80%; −)	− (>80%; −)
Cc1ncsc1-c1ccc(CNC(=O)[C@@H]2C[C@H](O)CN2C(=O)[C@@H](NC(=O)COCCCCCOc2ccc(C3CCN(C4=Nn5c(nnc5C(F)(F)F)CC4)CC3)cc2)C(C)(C)C)cc1 [Compound 21]	+++ (<40% : +++)	+ (60-80% : +)	− (>80%; −)	− (>80%; −)	+++ (<40%: +++)
Cc1ncsc1-c1ccc(CNC(=O)[C@@H]2C[C@H](O)CN2C(=O)[C@@H](NC(=O)COCCCCCCOc2ccc(C3CCN(C4=Nn5c(nnc5C(F)(F)F)CC4)CC3)cc2)C(C)(C)C)cc1 [Compound 22]	+++ (<40% : +++)	+++ (<40% : +++)	++ (40-60%: ++)	+++ (<40%: +++)	+++ (<40%: +++)
Cc1ncsc1-c1ccc(CNC(=O)[C@@H]2C[C@H](O)CN2C(=O)[C@@H](NC(=O)COCCCCCCCOc2ccc(C3CCN(C4=Nn5c(nnc5C(F)(F)F)CC4)CC3)cc2)C(C)(C)C)cc1 [Compound 23, (2S,4S)-1-((S)-3,3-dimethyl-2-(2-((7-(4-(1-(3-(trifluoromethyl)-7,8-dihydro-[1,2,4]triazolo[4,3-b]pyridazin-6-yl)piperidin-4-yl)phenoxy)heptyl)oxy)acetamido)butanoyl)-4-hydroxy-N-(4-(4-methylthiazol-5-yl)benzyl)pyrrolidine-2-carboxamide]	+++ (<40% : +++)	+++ (<40% : +++)	–	–	–
O=C1CCC(N2Cc3c(C#CCCCCOc4ccc(C5CCN(C6=Nn7c(nnc7C(F)(F)F)CC6)CC5)cc4)cccc3C2=O)C(=O)N1 (centres unmarked) [Compound 31, 3-(1-oxo-4-(6-(4-(1-(3-(trifluoromethyl)-7,8-dihydro-[1,2,4]triazolo[4,3-b]pyridazin-6-yl)piperidin-4-yl)phenoxy)hex-1-ynyl)isoindolin-2-yl)piperidine-2,6-dione]	+ (60-80% : +)	+ (60-80% : +)	–	–	–
O=C1CCC(N2Cc3c(NC(=O)COCCCCCCOc4ccc(C5CCN(C6=Nn7c(nnc7C(F)(F)F)CC6)CC5)cc4)cccc3C2=O)C(=O)N1 (centres unmarked) [Compound 32, N-(2-(2,6-dioxopiperidin-3-yl)-1-oxoisoindolin-4-yl)-2-((6-(4-(1-(3-(trifluoromethyl)-7,8-dihydro-[1,2,4]triazolo[4,3-b]pyridazin-6-yl)piperidin-4-yl)phenoxy)hexyl)oxy)acetamide]	+ (60-80% : +)	++ (40-60% : ++)	–	–	–
Cc1ncsc1-c1ccc(CNC(=O)[C@@H]2C[C@H](O)CN2C(=O)[C@@H](NC(=O)c2ccc(C(=O)N3CCC(C#Cc4ccc(C5CCN(C6=Nn7c(nnc7C(F)(F)F)CC6)CC5)cc4)CC3)cc2)C(C)(C)C)cc1 [Compound 33, 1-(3,3-dimethyl-2-(4-(4-((4-(1-(3-(trifluoromethyl)-7,8-dihydro-[1,2,4]triazolo[4,3-b]pyridazin-6-yl)piperidin-4-yl)phenyl)ethynyl)piperidine-1-carbonyl)benzamido)butanoyl)-4-hydroxy-N-(4-(4-methylthiazol-5-yl)benzyl)pyrrolidine-2-carboxamide]	− (<80% : −)	+++ (<40% : +++)	–	–	–
Cc1ncsc1-c1ccc(CNC(=O)[C@@H]2C[C@H](O)CN2C(=O)[C@@H](NC(=O)COCCCCOc2ccc(C3CCN(C4=Nn5c(nnc5C(F)(F)F)CC4)CC3)cc2)C(C)(C)C)c(O)c1 [Compound 35, (2S,4S)-1-((S)-3,3-dimethyl-2-(2-(4-(4-(1-(3-(trifluoromethyl)-7,8-dihydro-[1,2,4]triazolo[4,3-b]pyridazin-6-yl)piperidin-4-yl)phenoxy)butoxy)acetamido)butanoyl)-4-hydroxy-N-(2-hydroxy-4-(4-methylthiazol-5-yl)benzyl)pyrrolidine-2-carboxamide]	+++ (<40% : +++)	+++ (<40% : +++)	–	–	–
